US7094900B2, “N-Aryl-2-oxazolidinones and their derivatives” (Pharmacia & Upjohn Company LLC, priority 2002, dated 2006)
Values after ≈ are worked out from the molar mass of the structure shown.

System: Saur 9213
Assay: MIC test, standard agar dilution method
Type: cell-based
Conditions: Mueller Hinton agar, incubated overnight at 35° C., lowest concentration that inhibits visible growth
Source text: The oxazolidinone antibacterial agents of this invention have useful activity against a variety of organisms. The in vitro activity of compounds of this invention can be assessed by standard testing procedures such as the determination of minimum inhibitory concentration (MIC) by agar dilution as described in “Approved Standard. Methods for Dilution Antimicrobial Susceptibility Tests for Bacteria That Grow Aerobically”, 3rd. ed., published 1993 by the National Committee for Clinical Laboratory Standards, Villanova, Pa., USA. MIC Test Method The in vitro MICs of test compounds were determined by a standard agar dilution method. A stock drug solution of each analog was prepared in the preferred solvent, usually DMSO:H2O (1:3). Serial 2-fold dilutions of each sample are made using 1.0 ml aliquots of sterile distilled water. To each 1.0 ml aliquot of drug was added 9 ml of molten Mueller Hinton gar medium. The drug-supplemented agar was mixed, poured into 15×100 mm petri dishes, and allowed to solidify and dry prior to inoculation. Vial of each of the test organisms are maintained frozen in the vapor phase of a liquid nitrogen freezer. Test cultures are grown overnight at 35° C. on the medium appropriate for the organism. Colonies are harvested with a sterile swab, and cell suspensions are prepared in Trypticase Soy broth (TSB) to equal the turbidity of a 0.5 McFarland standard. A 1:20 dilution of each suspension was made in TSB. The plates containing the drug supplemented agar are inoculated with a 0.001 ml drop of the cell suspension using a Steers replicator, yielding approximately 10^4 to 10^5 cells per spot. The plates are incubated overnight at 35° C. Following incubation the Minimum Inhibitory Concentration (MIC μg/ml), the lowest concentration of the drug that inhibits visible growth of the organism, was read and recorded.

Structure (SMILES): CC(=O)NC[C@H]1CN(c2ccc(C3CCC(=O)NC3)c(F)c2)C(=O)O1 (stereo partly drawn) [Example 1, N-({(5S)-3-[3-fluoro-4-(6-oxopiperidin-3-yl)phenyl]-2-oxo-1,3-oxazolidin-5-yl}methyl)acetamide]
- MIC: 4 µg/mL (≈ 11.4 µM)

Structure (SMILES): CCC(=O)NC[C@H]1CN(c2ccc(C3CCC(=O)NC3)c(F)c2)C(=O)O1 (stereo partly drawn) [Example 2, N-({(5S)-3-[3-fluoro-4-(6-oxopiperidin-3-yl)phenyl]-2-oxo-1,3-oxazolidin-5-yl}methyl)propanamide]
- MIC: 4 µg/mL (≈ 11 µM)

Structure (SMILES): O=C1CCC(c2ccc(N3C[C@H](CNC(=O)C(Cl)Cl)OC3=O)cc2F)CN1 (stereo partly drawn) [Example 3, 2,2-dichloro-N-({(5S)-3-[3-fluoro-4-(6-oxopiperidin-3-yl)phenyl]-2-oxo-1,3-oxazolidin-5-yl}methyl)acetamide]
- MIC: 4 µg/mL (≈ 9.56 µM)

Structure (SMILES): O=C1CCC(c2ccc(N3C[C@H](CNC(=S)C(F)F)OC3=O)cc2F)CN1 (stereo partly drawn) [Example 4, 2,2-difluoro-N-({(5S)-3-[3-fluoro-4-(6-oxopiperidin-3-yl)phenyl]-2-oxo-1,3-oxazolidin-5-yl}methyl)ethanethioamide]
- MIC: 1 µg/mL (≈ 2.49 µM)

Structure (SMILES): O=C1CCC(c2ccc(N3C[C@H](CNC(=O)C(F)F)OC3=O)cc2F)CN1 (stereo partly drawn) [Example 5, 2,2-difluoro-N-({(5S)-3-[3-fluoro-4-(6-oxopiperidin-3-yl)phenyl]-2-oxo-1,3-oxazolidin-5-yl}methyl)acetamide]
- MIC: 4 µg/mL (≈ 10.4 µM)

Structure (SMILES): CC(=O)NC[C@H]1CN(c2cc(F)c(C3CCC(=O)NC3)c(F)c2)C(=O)O1 (stereo partly drawn) [Example 6, N-({(5S)-3-[3,5-difluoro-4-(6-oxopiperidin-3-yl)phenyl]-2-oxo-1,3-oxazolidin-5-yl}methyl)acetamide]
- MIC: 4 µg/mL (≈ 10.9 µM)

Structure (SMILES): O=C1CCC(c2c(F)cc(N3C[C@H](CNC(=O)C(Cl)Cl)OC3=O)cc2F)CN1 (stereo partly drawn) [Example 7, 2,2-dichloro-N-({(5S)-3-[3,5-difluoro-4-(6-oxopiperidin-3-yl)phenyl]-2-oxo-1,3-oxazolidin-5-yl}methyl)acetamide]
- MIC: 2 µg/mL (≈ 4.58 µM)

Structure (SMILES): O=C1CCC(c2c(F)cc(N3C[C@H](CNC(=S)C(F)F)OC3=O)cc2F)CN1 (stereo partly drawn) [Example 8, N-({(5S)-3-[3,5-difluoro-4-(6-oxopiperidin-3-yl)phenyl]-2-oxo-1,3-oxazolidin-5-yl}methyl)-2,2-difluoroethanethioamide]
- MIC: 1 µg/mL (≈ 2.38 µM)

Structure (SMILES): O=C1CCC(c2c(F)cc(N3C[C@H](CNC(=O)C(F)F)OC3=O)cc2F)CN1 (stereo partly drawn) [Example 9, N-({(5S)-3-[3,5-difluoro-4-(6-oxopiperidin-3-yl)phenyl]-2-oxo-1,3-oxazolidin-5-yl}methyl)-2,2-difluoroacetamide]
- MIC: 4 µg/mL (≈ 9.92 µM)

Structure (SMILES): CC(=O)NC[C@H]1CN(c2ccc(C3CCC(=O)NC3)cc2)C(=O)O1 (stereo partly drawn) [Example 10, N-({(5S)-2-oxo-3-[4-(6-oxopiperidin-3-yl)phenyl]-1,3-oxazolidin-5-yl}methyl)acetamide]
- MIC: 8 µg/mL (≈ 24.1 µM)

Structure (SMILES): CCC(=O)NC[C@H]1CN(c2ccc(C3CCC(=O)NC3)cc2)C(=O)O1 (stereo partly drawn) [Example 11, N-({(5S)-2-oxo-3-[4-(6-oxopiperidin-3-yl)phenyl]-1,3-oxazolidin-5-yl}methyl)propanamide]
- MIC: 8 µg/mL (≈ 23.2 µM)

Structure (SMILES): O=C1CCC(c2ccc(N3C[C@H](CNC(=O)C(Cl)Cl)OC3=O)cc2)CN1 (stereo partly drawn) [Example 12, 2,2-dichloro-N-({(5S)-2-oxo-3-[4-(6-oxopiperidin-3-yl)phenyl]-1,3-oxazolidin-5-yl}methyl)acetamide]
- MIC: 4 µg/mL (≈ 9.99 µM)

Structure (SMILES): O=C1CCC(c2ccc(N3C[C@H](CNC(=S)C(F)F)OC3=O)cc2)CN1 (stereo partly drawn) [Example 13, 2,2-difluoro-N-({(5S)-2-oxo-3-[4-(6-oxopiperidin-3-yl)phenyl]-1,3-oxazolidin-5-yl}methyl)ethanethioamide]
- MIC: 2 µg/mL (≈ 5.22 µM)

Structure (SMILES): CC(=O)NC[C@H]1CN(c2ccc(C3CCC(=O)N(C)C3)cc2)C(=O)O1 (stereo partly drawn) [Example 15, ({(5S)-3-[4-(1-methyl-6-oxopiperidin-3-yl)phenyl]-2-oxo-1,3-oxazolidin-5-yl}methyl)acetamide]
- MIC: 8 µg/mL (≈ 23.2 µM)

Structure (SMILES): CC(=O)NC[C@H]1CN(c2ccc(C3CCNC(=O)C3)c(F)c2)C(=O)O1 (stereo partly drawn) [Example 16, N-({(5S)-3-[3-fluoro-4-(2-oxopiperidin-4-yl)phenyl]-2-oxo-1,3-oxazolidin-5-yl}methyl)acetamide]
- MIC: 2 µg/mL (≈ 5.72 µM)

Structure (SMILES): CCC(=O)NC[C@H]1CN(c2ccc(C3CCNC(=O)C3)c(F)c2)C(=O)O1 (stereo partly drawn) [Example 17, N-({(5S)-3-[3-fluoro-4-(2-oxopiperidin-4-yl)phenyl]-2-oxo-1,3-oxazolidin-5-yl}methyl)propanamide]
- MIC: 4 µg/mL (≈ 11 µM)

Structure (SMILES): O=C1CC(c2ccc(N3C[C@H](CNC(=S)C(F)F)OC3=O)cc2F)CCN1 (stereo partly drawn) [Example 18, 2,2-difluoro-N-({(5S)-3-[3-fluoro-4-(2-oxopiperidin-4-yl)phenyl]-2-oxo-1,3-oxazolidin-5-yl}methyl)ethanethioamide]
- MIC: 1 µg/mL (≈ 2.49 µM)

Structure (SMILES): CC(=O)NC[C@H]1CN(c2cc(F)c(C3CCNC(=O)C3)c(F)c2)C(=O)O1 (stereo partly drawn) [Example 19, N-({(5S)-3-[3,5-difluoro-4-(2-oxopiperidin-4-yl)phenyl]-2-oxo-1,3-oxazolidin-5-yl}methyl)acetamide]
- MIC: 4 µg/mL (≈ 10.9 µM)

Structure (SMILES): CCC(=O)NC[C@H]1CN(c2cc(F)c(C3CCNC(=O)C3)c(F)c2)C(=O)O1 (stereo partly drawn) [Example 20, N-({(5S)-3-[3,5-difluoro-4-(2-oxopiperidin-4-yl)phenyl]-2-oxo-1,3-oxazolidin-5-yl}methyl)propanamide]
- MIC: 8 µg/mL (≈ 21 µM)

Structure (SMILES): O=C1CC(c2c(F)cc(N3C[C@H](CNC(=S)C(F)F)OC3=O)cc2F)CCN1 (stereo partly drawn) [Example 21, N-({(5S)-3-[3,5-difluoro-4-(2-oxopiperidin-4-yl)phenyl]-2-oxo-1,3-oxazolidin-5-yl}methyl)-2,2-difluoroethanethioamide]
- MIC: 2 µg/mL (≈ 4.77 µM)

Structure (SMILES): CC(=O)NC[C@H]1CN(c2ccc(C3CCNC(=O)C3)cc2)C(=O)O1 (stereo partly drawn) [Example 22, N-({(5S)-2-oxo-3-[4-(2-oxopiperidin-4-yl)phenyl]-1,3-oxazolidin-5-yl}methyl)acetamide]
- MIC: 4 µg/mL (≈ 12.1 µM)

Structure (SMILES): O=C1CC(c2ccc(N3C[C@H](CNC(=S)C(F)F)OC3=O)cc2)CCN1 (stereo partly drawn) [Example 23, 2,2-difluoro-N-({(5S)-2-oxo-3-[4-(2-oxopiperidin-4-yl)phenyl]-1,3-oxazolidin-5-yl}methyl)ethanethioamide]
- MIC: 1 µg/mL (≈ 2.61 µM)

Structure (SMILES): CCC(=O)NC[C@H]1CN(c2ccc(C3CCNC(=O)C3)cc2)C(=O)O1 (stereo partly drawn) [Example 24, N-({(5S)-2-oxo-3-[4-(2-oxopiperidin-4-yl)phenyl]-1,3-oxazolidin-5-yl}methyl)propanamide]
- MIC: 8 µg/mL (≈ 23.2 µM)

Structure (SMILES): CC(=O)NC[C@H]1CN(c2ccc(C3CCN(C)C(=O)C3)cc2)C(=O)O1 (stereo partly drawn) [Example 25, N-({(5S)-3-[4-(1-methyl-2-oxopiperidin-4-yl)phenyl]-2-oxo-1,3-oxazolidin-5-yl}methyl)acetamide]
- MIC: 4 µg/mL (≈ 11.6 µM)

Structure (SMILES): O=C1CCC(c2c(F)cc(N3C[C@H](Cn4ccnn4)OC3=O)cc2F)CN1 (stereo partly drawn) [Example 26, 5-{2,6-difluoro-4-[(5R)-2-oxo-5-(1H-1,2,3-triazol-1-ylmethyl)-1,3-oxazolidin-3-yl]phenyl}piperidin-2-one]
- MIC: 2 µg/mL (≈ 5.3 µM)
